From patent US11191760B2, “Compositions and methods for treating Helicobacter pylori infection” (priority 2016, dated 2021)

Experiments:
Format in all cases: cell-based
AGS cells [1] = test: VacA-disrupted autophagy in AGS cells (LC3-II immunoblot, LC3 puncta); settings: for VacA-disrupted autophagy (LC3-II levels): FIG. 13
Description: AGS cells incubated with VacA+ or VacA− CCMS for 3 to 4 hrs were then treated with 20 μM ML-SA1 or DMSO (vehicle) for an additional 3 hrs. Cell lysates were prepared and probed for the autophagy marker LC3-II and actin (loading control) (4A, left). Densitometry analysis (LC3-II/actin ratio) of 6 experiments is included on the right. […] Cells treated as indicated above were fixed and stained for LC3-11 (marker of autophagosomes) and cell nuclei (using DAPI). […] One representative image of 7 experiments is shown.
To validate the results obtained with ML-SA1 and confirm that VacA impairs TRPML1 activity, a new recently described TRPML1 agonist, MK6-83, was also evaluated in its ability to restore VacA-disrupted autophagy. To this end, AGS cells incubated with VacA+ or VacA− CCMS for 4 hours were treated with 20 μM ML-SA1, 10 μM MK6-83 or DMSO (vehicle) for additional 3 hour period. Cell lysates were prepared and assessed for LC3-II and actin as loading control. […] This example provides evidence that various TRPML1 agonists of different structures work in the same way by targeting TRPML1 to restore VacA-disrupted autophagy.

AGS cells [2] = test: VacA-induced vacuolation in AGS cells (Lamp1 staining); settings: 20 μM for 3 hrs after 3 to 4 hrs VacA+ CCMS
Description: AGS cells were incubated with CCMS from wild-type (VacA+) or mutant (VacA−) 60190 H. pylori for 3 to 4 hrs to induce vacuole formation. Cells were then treated with 20 μM of the TRPML1 agonist ML-SA1 or DMSO (vehicle) for an additional 3 hrs period prior to fixation and staining for Lamp1 and cell nuclei. […] Lamp1 staining in these TRPML1 treated cells was indistinguishable from VacA− CCMS control AGS cells. The experiment was repeated 8 times with similar results. One representative experiment is shown.
ML-SA1-treated VacA^+ AGS cells were indistinguishable from VacA^− control cells, displaying Lamp1 staining that resembled normal lysosome size and distribution.

AGS cells [3] = test: VacA-induced missorting of cathepsin D in AGS cells (Lamp1/cathepsin D staining); settings: 20 μM for 4 hrs after overnight VacA+ CCMS
Description: VacA− DMSO treated (control) cells display lysosomes filled with cathepsin D (same puncta obtained by Lamp1 and cathepsin D staining in the top 2 panels) whereas the big vacuoles generated by VacA+ incubation lack cathepsin D (middle panels). […] A higher magnification of a merged Lamp1/cathepsin D image is included on the right. One representative image of 6 experiments is shown.
(§1) ML-SA1 administration to VacA^+ treated AGS cells recovered the delivery of cathepsin D to intracellular vacuoles (FIG. 5) and increased cathepsin D cellular levels as detected by immunoblotting (FIG. 6). Importantly, ML-SA1-treated cells also regained the ability to degrade the chromogenic substrate, DQ-BSA (FIG. 7). Altogether, these findings indicate that activation of the TRPML1 channel reverts formation of the VacA-induced non-degradative vacuole.

AGS cells [4] = test: Cathepsin D cellular levels in VacA+ CCMS treated AGS cells (Western blotting); settings: 20 μM for 4 hrs after overnight VacA+ CCMS
Description: AGS cells were incubated overnight with VacA− or VacA+ CCMS and treated with 20 μM ML-SA1 or DMSO (vehicle) for an additional 4 hrs period prior to lysate preparation. Cathepsin D and actin (loading control) levels were analyzed by Western blotting. […] One representative blot of 5 is shown (top panel). Densitometry analysis of cathepsin D levels (cathepsin D/actin ratio), normalized to the VacA− treated control is shown (bottom panel).
as §1

AGS cells [5] = test: Lysosomal degradative function in VacA+ CCMS treated AGS cells (red DQ-BSA); settings: 20 μM for 3 hrs after overnight VacA+ CCMS, then red DQ-BSA 4 hrs
Description: AGS cells were incubated overnight with VacA− or VacA+ CCMS and treated with 20 μM ML-SA1 or DMSO (vehicle) for an additional 3 hrs period prior to being loaded with red DQ-BSA for an additional 4 hrs. Cells were then fixed and stained with DAPI. Red DQ-BSA is a chromogenic substrate taken up by the cells by endocytosis. The dye generates a fluorescence signal once hydrolyzed in lysosomes. VacA− treated control cells efficiently degrade the substrate resulting in the detection of the fluorescence signal (lysosomal-like white puncta in 7A) whereas in VacA+ treated cells minimal to none fluorescence is detected (7B). […] The experiment was repeated 4 times with similar results.
as §1

[6] = test system: wild-type (VacA+) H. pylori; test: Intracellular bacteria survival in infected AGS cells (gentamicin, CFU)
AGS cells [7] = test: Vacuolation and cathepsin D missorting in AGS cells infected with wild-type (VacA+) H. pylori; settings: treated for 4 hrs
Description: A merged image is shown on the left, and the individual stainings corresponding to a higher magnification of the selected areas are included on the right. In the AGS cells infected with VacA− H. pylori mutant, the cathepsin D-filled lysosomes efficiently killed the intracellular bacteria (visualized by DAPI).
To this end, AGS cells infected with wild-type (VacA^+) or VacA^− mutant H. pylori were incubated with the cell-impermeant antibiotic gentamicin to kill extracellular bacteria. Intracellular bacteria were then retrieved and quantified. […] The big vacuoles, depleted of cathepsin D and filled with bacteria observed in the VacA^+ H. pylori infected cells (FIG. 9, inset), were reduced in size and filled with the hydrolytic enzyme after ML-SA1 treatment (FIG. 9, inset). Thus, the reduction in intracellular survival was a consequence of the destruction of the […] H. pylori protective niche (FIG. 8,9).

human gastric organoids = test: VacA-induced large vacuoles and disrupted autophagy in human gastric organoids; settings: 16 h VacA+ culture supernatant
Description: (11A) 3-dimensional human gastric organoids were treated 16 h with VacA− or VacA+ culture supernatant, then 5 h with vehicle (DMSO) or ML-SA1. One representative Western blot is shown and the corresponding quantification of the rescue in LC3-II by treatment with ML-SA1 from organoids derived from 5 different patients. (B) Representative confocal images taken from human gastric organoid monolayers treated for 16 h with VacA− or VacA+ culture supernatant, then 3 h with vehicle (DMSO) or ML-SA1. VacA-induced large vacuoles were visualized by Lamp1, autophagy by LC3 and nuclei by DAPI. Note large Lamp1 positive rings and LC3 puncta (arrows) in VacA+ DMSO that were rescued in VacA+ ML-SA1.
Organoids are 3-dimensional primary cell cultures that recapitulate the normal stomach physiology. These cultures are derived from stem cells located in the gastric gland that differentiate into complex structures containing the different cell types found in the stomach epithelium. To ensure findings from the cancerous gastric cell line (AGS) held true in a physiological model, organoids were derived from multiple different patients and treated with VacA.

SMILES	VacA-disrupted autophagy (LC3-II levels) (AGS cells [1]; 10 μM for 3 hour after 4 hours VacA+ CCMS, AGS cells)	VacA-induced vacuolation (Lamp1 staining) (AGS cells [2])	VacA-disrupted autophagy (LC3-II levels) (AGS cells [1]; 20 μM for 3 hour after 4 hours VacA+ CCMS, AGS cells)	autophagy marker LC3-II (LC3-II/actin ratio) (AGS cells [1]; 20 μM for 3 hrs after 3 to 4 hrs VacA+ CCMS, AGS cell lysates, FIG. 4A)	accumulation of dysfunctional autophagosomes (LC3 puncta) (AGS cells [1]; 20 μM for 3 hrs after VacA+ CCMS, AGS cells, staining, FIG. 4B)	cathepsin D sorting to lysosomes (AGS cells [3])	cathepsin D cellular levels (cathepsin D/actin ratio) (AGS cells [4])	lysosomal degradative function (degradation of DQ-BSA) (AGS cells [5])	intracellular survival of wild-type (VacA+) H. pylori (CFU) ([6]; 8 hrs infection, 20 μM for the last 3 hrs)	intracellular survival of wild-type (VacA+) H. pylori (CFU) ([6]; 24 hrs infection, 20 μM for the last 4 hrs)	size of the vacuoles in VacA+ H. pylori infected cells (AGS cells [7]; Lamp1 staining)	cathepsin D in the vacuoles of VacA+ H. pylori infected cells (AGS cells [7]; cathepsin D staining)	VacA-induced large intracellular vacuoles (Lamp1) (human gastric organoids; then 3 h compound, human gastric organoid monolayers)	disrupted autophagy (LC3) (human gastric organoids; then 5 h (3-dimensional organoids, LC3-II blot) or 3 h (monolayers) compound)
Cc1ccc(S(=O)(=O)Nc2ccccc2N2CCCCC2)s1 [MK6-83]	restored the VacA-disrupted autophagy	–	–	–	–	–	–	–	–	–	–	–	–	–
CC1CC(C)(C)N(C(=O)CN2C(=O)c3ccccc3C2=O)c2ccccc21 (centres unmarked) [ML-SA1]	–	reversed the vacuolation	restored the VacA-disrupted autophagy	autophagy was restored	reversed the accumulation of dysfunctional autophagosomes	restores cathepsin D sorting to lysosomes	restored cathepsin D levels	restores the degradative capacity	reverted the enhanced intracellular survival	reverted the enhanced intracellular survival	causes a reduction in the size of the vacuoles	now contain the lysosomal hydrolase cathepsin D	large vacuoles were reverted	autophagy was restored
